# Data: US8318949B2, “Organic compounds” (Novartis AG, priority 2008, dated 2012)
row,Structure (SMILES),melting point [°C]
1,"Cc1nc(N2CCN(CC3CC3(F)F)C2=O)sc1C(=O)NCc1ncco1 (stereo not drawn) [Example 16.1, 2-(3-((2,2-difluorocyclopropyl)methyl)-2-oxoimidazolidin-1-yl)-4-methyl-N-(oxazol-2-ylmethyl)thiazole-5-carboxamide]",156 to 158
2,"Cc1nc(N2C[C@H](C)N(Cc3ccc(F)cc3)C2=O)sc1C(N)=O [Example 1.3, (S)-2-(3-(4-fluorobenzyl)-4-methyl-2-oxoimidazolidin-1-yl)-4-methylthiazole-5-carboxamide]",192 to 194
3,"Cc1nc(N2CCN(Cc3ccc(F)cc3)C2=O)sc1-c1cc[nH]n1 [Example 9, 1-(4-fluorobenzyl)-3-(4-methyl-5-(1H-pyrazol-3-yl)thiazol-2-yl)imidazolidin-2-one]",239 to 242
4,"Cc1nc(N2C[C@@H](C)N(Cc3ccc(F)cc3)C2=O)sc1C(=O)NCc1cncs1 [Example 2.8, (R)-2-(3-(4-fluorobenzyl)-4-methyl-2-oxoimidazolidin-1-yl)-4-methyl-N-(thiazol-5-ylmethyl)thiazole-5-carboxamide]",66 to 69
5,"Cc1cc(-c2sc(N3CCN(Cc4cccc(C(F)(F)F)c4)C3=O)nc2C)n[nH]1 [Example 6.1, 1-(4-methyl-5-(5-methyl-1H-pyrazol-3-yl)thiazol-2-yl)-3-(3-(trifluoromethyl)benzyl)imidazolidin-2-one]",163 to 164
6,"Cc1nc(N2CCN(Cc3ccc(OC(F)(F)F)cc3)C2=O)sc1C(N)=O [Example 1.9, 4-methyl-2-(2-oxo-3-(4-(trifluoromethoxy)benzyl)imidazolidin-1-yl)thiazole-5-carboxamide]",185 to 187
7,"Cc1nc(N2C[C@@H](C)N(Cc3ccc(C(F)(F)F)cc3)C2=O)sc1C(N)=O [Example 1.16, (R)-4-methyl-2-(4-methyl-2-oxo-3-(4-(trifluoromethyl)benzyl)imidazolidin-1-yl)thiazole-5-carboxamide]",110 to 112
8,"Cc1cc(CNC(=O)c2sc(N3C[C@@H](C)N(Cc4ccc(F)cc4)C3=O)nc2C)[nH]n1 [Example 2.9, (R)-2-(3-(4-fluorobenzyl)-4-methyl-2-oxoimidazolidin-1-yl)-4-methyl-N-((3-methyl-1H-pyrazol-5-yl)methyl)thiazole-5-carboxamide]",215 to 216
9,"Cc1nc(N2CCN(CC3CC3)C2=O)sc1C(=O)NCc1cncc(F)c1 [Example 12, 2-(3-(cyclopropylmethyl)-2-oxoimidazolidin-1-yl)-N-((5-fluoropyridin-3-yl)methyl)-4-methylthiazole-5-carboxamide]",144 to 145
10,Cc1nc(-n2cnn(Cc3ccc(F)cc3)c2=O)sc1C(=O)NCc1csc(C(C)C)n1 [Example 16.7],151 to 153
11,"Cc1nc(N2C[C@@H](C)N(Cc3cc(F)cc(F)c3)C2=O)sc1C(=O)NCc1ccccn1 [Example 2.12, (R)-2-(3-(3,5-difluorobenzyl)-4-methyl-2-oxoimidazolidin-1-yl)-4-methyl-N-(pyridin-2-ylmethyl)thiazole-5-carboxamide]",147 to 148
12,"Cc1nnc(-c2sc(N3CCN(Cc4ccccc4)C3=O)nc2C)[nH]1 [Example 11, 1-benzyl-3-(4-methyl-5-(5-methyl-4H-1,2,4-triazol-3-yl)thiazol-2-yl)imidazolidin-2-one]",284 to 287
13,"Cc1nc(N2CCN(CCC3CC3)C2=O)sc1-c1cc[nH]n1 [Example 8, 1-(2-cyclopropylethyl)-3-(4-methyl-5-(1H-pyrazol-3-yl)thiazol-2-yl)imidazolidin-2-one]",147 to 149
14,"Cc1nc(N2C[C@@H](C)N(Cc3ccc(F)cc3)C2=O)sc1C(N)=O [Example 1.15, (R)-2-(3-(4-fluorobenzyl)-4-methyl-2-oxoimidazolidin-1-yl)-4-methylthiazole-5-carboxamide]",185 to 186
15,"Cc1nc(N2C[C@@H](C)N(Cc3ccc(F)cc3)C2=O)sc1C(=O)NCc1ccccn1 [Example 2.5, (R)-2-(3-(4-fluorobenzyl)-4-methyl-2-oxoimidazolidin-1-yl)-4-methyl-N-(pyridin-2-ylmethyl)thiazole-5-carboxamide]",118 to 119
16,"Cc1nc(-n2cnn(CC3CC3)c2=O)sc1C(=O)NCc1ccccn1 [Example 14.3, 2-(1-(Cyclopropylmethyl)-5-oxo-1H-1,2,4-triazol-4(5H)-yl)-4-methyl-N-(pyridin-2-ylmethyl)thiazole-5-carboxamide]",160 to 161
17,"Cc1nc(-n2cnn(CC3CC3(F)F)c2=O)sc1C(=O)NCc1cccnc1 (stereo not drawn) [Example 15, 2-(1-((2,2-difluorocyclopropyl)methyl)-5-oxo-1H-1,2,4-triazol-4(5H)-yl)-4-methyl-N-(pyridin-3-ylmethyl)thiazole-5-carboxamide]",160 to 161
18,"Cc1nc(-n2cnn(Cc3ccc(F)cc3)c2=O)sc1-c1nn[nH]n1 [Example 18, 1-(4-fluorobenzyl)-4-(4-methyl-5-(2H-tetrazol-5-yl)thiazol-2-yl)-1H-1,2,4-triazol-5(4H)-one]",136 to 139

row,Structure (SMILES),melting point [°C]
1,"Cc1nc(N2CCN(Cc3ccccc3)C2=O)sc1C(N)=O [Example 10, 2-(3-benzyl-2-oxoimidazolidin-1-yl)-4-methylthiazole-5-carboxamide]",217 to 218
2,"Cc1nc(N2C[C@H](C)N(Cc3ccc(F)cc3)C2=O)sc1C(=O)NCc1cccnc1 [Example 2, (S)-2-(3-(4-Fluorobenzyl)-4-methyl-2-oxoimidazolidin-1-yl)-4-methyl-N-(pyridin-3-ylmethyl)thiazole-5-carboxamide]",67 to 70
3,"Cc1nc(N2CCN(CC3CC3)C2=O)sc1C(=O)NCc1ncco1 [Example 12.15, 2-(3-(cyclopropylmethyl)-2-oxoimidazolidin-1-yl)-4-methyl-N-(oxazol-2-ylmethyl)thiazole-5-carboxamide]",172 to 174
4,"COc1ccc(CN2CCN(c3nc(C)c(C(N)=O)s3)C2=O)cc1F [Example 1.11, 2-(3-(3-fluoro-4-methoxybenzyl)-2-oxoimidazolidin-1-yl)-4-methylthiazole-5-carboxamide]",182 to 184
5,"Cc1cncc(CNC(=O)c2sc(N3CCN(CC(C)C)C3=O)nc2C)n1 [Example 12.20, 2-(3-isobutyl-2-oxoimidazolidin-1-yl)-4-methyl-N-((6-methylpyrazin-2-yl)methyl)thiazole-5-carboxamide]",139 to 142
6,"Cc1cc(CNC(=O)c2sc(-n3cnn(Cc4ccc(F)cc4)c3=O)nc2C)[nH]n1 [Example 2.3, 2-(1-(4-Fluorobenzyl)-5-oxo-1H-1,2,4-triazol-4(5H)-yl)-4-methyl-N-((3-methyl-1H-pyrazol-5-yl)methyl)thiazole-5-carboxamide]",234 to 235
7,"Cc1nc(N2CCN(CC3CC3)C2=O)sc1C(=O)NCc1ncccn1 [Example 12.11, 2-(3-(cyclopropylmethyl)-2-oxoimidazolidin-1-yl)-4-methyl-N-(pyrimidin-2-ylmethyl)thiazole-5-carboxamide]",218 to 220
8,"Cc1nc(N2CCN(Cc3ccc(C(F)(F)F)nc3)C2=O)sc1C(N)=O [Example 1.10, 4-methyl-2-(2-oxo-3-((6-(trifluoromethyl)pyridine-3-yl)methyl)imidazolidin-1-yl)thiazole-5-carboxamide]",225 to 228
9,"Cc1nnc(-c2sc(N3CCN(Cc4ccc(C(F)(F)F)cc4)C3=O)nc2C)[nH]1 [Example 3, 1-(4-methyl-5-(5-methyl-4H-1,2,4-triazol-3-yl)thiazol-2-yl)-3-(4-(trifluoromethyl)benzyl)imidazolidin-2-one]",273 to 274
10,"C=CCCN1CCN(c2nc(C)c(C(=O)NCc3cccnc3)s2)C1=O [Example 2.4, 2-(3-(but-3-enyl)-2-oxoimidazolidin-1-yl)-4-methyl-N-(pyridin-3-ylmethyl)thiazole-5-carboxamide]",144 to 145
11,"Cc1cncc(CNC(=O)c2sc(N3CCN(CCCC(F)(F)F)C3=O)nc2C)n1 [Example 12.6, 4-methyl-N-((6-methylpyrazin-2-yl)methyl)-2-(2-oxo-3-(4,4,4-trifluorobutyl)imidazolidin-1-yl)thiazole-5-carboxamide]",123
12,"Cc1cc(CNC(=O)c2sc(N3C[C@@H](C)N(Cc4cc(F)cc(F)c4)C3=O)nc2C)no1 [Example 2.14, (R)-2-(3-(3,5-difluorobenzyl)-4-methyl-2-oxoimidazolidin-1-yl)-4-methyl-N-((5-methylisoxazol-3-yl)methyl)thiazole-5-carboxamide]",63 to 66
13,"Cc1nc(N2CCN(CC(C)C)C2=O)sc1C(=O)NCc1cnn(C)c1 [Example 12.21, 2-(3-isobutyl-2-oxoimidazolidin-1-yl)-4-methyl-N-((1-methyl-1H-pyrazol-4-yl)methyl)thiazole-5-carboxamide]",155 to 158
14,"Cc1nc(N2CCN(Cc3ccc(F)cc3)C2=O)sc1-c1nn[nH]n1 [Example 18.1, 1-(4-fluorobenzyl)-3-(4-methyl-5-(2H-tetrazol-5-yl)thiazol-2-yl)imidazolidin-2-one]",145 to 149
15,"Cc1nc(N2CCN(Cc3ccc(F)c(F)c3)C2=O)sc1C(N)=O [Example 1.7, 2-(3-(3,4-difluorobenzyl)-2-oxoimidazolidin-1-yl)-4-methylthiazole-5-carboxamide]",221 to 223
16,"Cc1nc(N2C(=O)N(Cc3ccc(F)cc3)C[C@H]2C)sc1C(=O)NCc1ccccn1 [Example 2.18, (R)-2-(3-(4-fluorobenzyl)-5-methyl-2-oxoimidazolidin-1-yl)-4-methyl-N-(pyridin-2-ylmethyl)thiazole-5-carboxamide]",55 to 57
17,"Cc1nc(N2CCN(Cc3ccc(F)cc3)C2=O)sc1C(=O)NCc1csc(C(C)C)n1 [Example 16.4, 2-(3-(4-fluorobenzyl)-2-oxoimidazolidin-1-yl)-N-((2-isopropylthiazol-4-yl)methyl)-4-methylthiazole-5-carboxamide]",170 to 172
18,"Cc1csc(CNC(=O)c2sc(N3CCN(CC4CC4(F)F)C3=O)nc2C)n1 (stereo not drawn) [Example 16.3, 2-(3-((2,2-difluorocyclopropyl)methyl)-2-oxoimidazolidin-1-yl)-4-methyl-N-((4-methylthiazol-2-yl)methyl)thiazole-5-carboxamide]",157 to 159
